# Reference: patent US20020137929A1, “1 - (3-heterocyclylphenyl) isothiourea, -isourea, -guanidine and -amidine herbicidal agents” (Intellectual Property Department, BASF Aktiengesellschaft, priority 1998, published 2002)
# Key:
# [1] = test system: ORYSAT (Rice, Tebonnet); test: Preemergence herbicidal evaluation; assay type: in vivo, Oryza sativa, (L.) Tebonnet; settings: rated 4-5 weeks after treatment
# How it was run: (§1)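 Test compound, dissolved in aqueous acetone, was sprayed over planted soil cups at an equivalent of about 0.0156 to 0.500 kg/ha; seeds had been mixed with potting soil. Greenhouse growth followed, with visual 0-9 scoring of injury at four to five weeks.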
# [2] = test system: ZEAMX (Corn, Field); test: Postemergence herbicidal evaluation; assay type: in vivo, Zea mays; settings: postemergence
# How it was run: (§2)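 Compound is applied as a foliar spray to seedlings about two weeks old, formulated in equal parts acetone and water with 0.5% TWEEN 20 and delivered at 40 psi to give about 0.0156–0.500 kg per hectare. Injury is rated visually 0–9 after four to five weeks.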
# [3] = test system: CASOB (Sicklepod); test: Postemergence herbicidal evaluation; assay type: in vivo, Cassia obtusifolia; settings: postemergence
# How it was run: as §2
# [4] = test system: GALAP (Galium); test: Postemergence herbicidal evaluation; assay type: in vivo, Galium aparine; settings: postemergence
# How it was run: as §2
# [5] = test system: ZEAMX (Corn, Field); test: Preemergence herbicidal evaluation; assay type: in vivo, Zea mays; settings: rated 4-5 weeks after treatment
# How it was run: as §1
# [6] = test system: CYPIR (Rice Flatsedge); test: Preemergence weed control under flooded paddy conditions; assay type: in vivo, Cyperus iria; settings: rated 3-4 weeks after treatment
# How it was run: (§3)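 First, seeds or propagules go into the top 0.5 cm of silt loam; next, water is held 1.5 to 3 cm over the soil; then compound (50/50 acetone/water) is pipetted into it at about 0.0313 to 0.500 kg/ha; finally plants are rated visually 0-9 after three to four weeks.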
# [7] = test system: ECHORC (Watergrass (Calif.)); test: as above; assay type: in vivo, Echinochloa oryzoides; settings: rated 3-4 weeks after treatment
# How it was run: as §3
# [8] = test system: CYPSE (Flatsedge); test: as above; assay type: in vivo, Cyperus serotinus; settings: rated 3-4 weeks after treatment
# How it was run: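 Seeds or propagules sown in top 0.5 cm of silt loam soil, flooded 1.5 to 3 cm above surface throughout. Compound in 50/50 v/v aqueous/acetone pipetted into flood water at about 0.0313 to 0.500 kg/ha. Visual 0-9 rating versus control after three to four weeks in greenhouse.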
# [9] = test system: TRZAWR (Wheat, Winter, cv Riband); test: Preemergence herbicidal evaluation; assay type: in vivo, Triticum aestivum; settings: rated 4-5 weeks after treatment
# How it was run: as §1
# [10] = test system: IPOHE (Morningglory, Ivyleaf); test: Preemergence herbicidal evaluation; assay type: in vivo, Ipomoea hederacea; settings: rated 4-5 weeks after treatment
# How it was run: as §1
# [11] = test system: CHEAL (Lambsquarters, Common); test: Preemergence herbicidal evaluation; assay type: in vivo, Chenopodium album; settings: rated 4-5 weeks after treatment
# How it was run: as §1
# [12] = test system: AMBEL (Ragweed, Common); test: Preemergence herbicidal evaluation; assay type: in vivo, Ambrosia artemisifolia; settings: rated 4-5 weeks after treatment
# How it was run: as §1
# [13] = rate 0.0313 kg/ha, rating scale 0-9
# [14] = rate 0.0625 kg/ha, rating scale 0-9
# [15] = rate 0.1250 kg/ha, rating scale 0-9
# [16] = rate 0.2500 kg/ha, rating scale 0-9
compound,measurement,setting,value
"Cn1c(C(F)(F)F)cc(=O)n(-c2cc(N=C3SCC(=O)N3Cc3cc(Cl)cc(Cl)c3)c(Cl)cc2F)c1=O [Compound 150, 3-{4-Chloro-5-{[3-(3,5-dichlorobenzyl)-4-oxo-2-thiazolidinylidene]amino}-2-fluorophenyl}-1-methyl-6-(trifluoromethyl)-2,4(1H,3H)-pyrimidinedione]",Preemergence herbicidal rating ORYSAT,[1]; [13],0.0
same,Preemergence herbicidal rating ORYSAT,[1]; [14],1.0
same,Preemergence herbicidal rating ORYSAT,[1]; [15],2.0
same,Preemergence herbicidal rating ORYSAT,[1]; [16],1.0
same,Herbicidal rating ZEAMX,[2]; rate 0.0156 kg/ha,4.0
same,Herbicidal rating ZEAMX,[2]; rate 0.0313 kg/ha,4.0
same,Herbicidal rating ZEAMX,[2]; rate 0.0625 kg/ha,4.0
same,Herbicidal rating CASOB,[3]; rate 0.0156 kg/ha,1.0
same,Herbicidal rating CASOB,[3]; rate 0.0313 kg/ha,3.0
same,Herbicidal rating CASOB,[3]; rate 0.0625 kg/ha,3.0
same,Herbicidal rating GALAP,[4]; rate 0.0156 kg/ha,1.0
same,Herbicidal rating GALAP,[4]; rate 0.0313 kg/ha,2.0
same,Herbicidal rating GALAP,[4]; rate 0.0625 kg/ha,4.0
same,Preemergence herbicidal rating ZEAMX,[5]; [13],0.0
same,Preemergence herbicidal rating ZEAMX,[5]; [14],1.0
same,Preemergence herbicidal rating ZEAMX,[5]; [15],2.0
same,Preemergence herbicidal rating ZEAMX,[5]; [16],1.0
same,"herbicidal effect rating, CYPIR",[6]; 0.0313 kg/ha,9.0
same,"herbicidal effect rating, CYPIR",[6]; 0.0625 kg/ha,9.0
same,"herbicidal effect rating, CYPIR",[6]; 0.1250 kg/ha,9.0
same,"herbicidal effect rating, CYPIR",[6]; 0.2500 kg/ha,9.0
same,"herbicidal effect rating, ECHORC",[7]; 0.0313 kg/ha,6.0
same,"herbicidal effect rating, ECHORC",[7]; 0.0625 kg/ha,7.0
same,"herbicidal effect rating, ECHORC",[7]; 0.1250 kg/ha,9.0
same,"herbicidal effect rating, ECHORC",[7]; 0.2500 kg/ha,9.0
same,"herbicidal effect rating, CYPSE",[8]; 0.1250 kg/ha,9.0
same,"herbicidal effect rating, CYPSE",[8]; 0.2500 kg/ha,9.0
same,Preemergence herbicidal rating TRZAWR,[9]; [13],0.0
same,Preemergence herbicidal rating TRZAWR,[9]; [14],0.0
same,Preemergence herbicidal rating TRZAWR,[9]; [15],1.0
same,Preemergence herbicidal rating TRZAWR,[9]; [16],1.0
same,Preemergence herbicidal rating IPOHE,[10]; [13],0.0
same,Preemergence herbicidal rating IPOHE,[10]; [14],0.0
same,Preemergence herbicidal rating IPOHE,[10]; [15],9.0
same,Preemergence herbicidal rating IPOHE,[10]; [16],9.0
same,Preemergence herbicidal rating CHEAL,[11]; [13],9.0
same,Preemergence herbicidal rating CHEAL,[11]; [14],9.0
same,Preemergence herbicidal rating CHEAL,[11]; [15],9.0
same,Preemergence herbicidal rating CHEAL,[11]; [16],9.0
same,Preemergence herbicidal rating AMBEL,[12]; [13],0.0
same,Preemergence herbicidal rating AMBEL,[12]; [14],0.0
same,Preemergence herbicidal rating AMBEL,[12]; [15],3.0
same,Preemergence herbicidal rating AMBEL,[12]; [16],7.0
"CCN1C(=O)CSC1=Nc1cc(-n2c(=O)cc(C(F)(F)F)n(C)c2=O)c(F)cc1Cl [Compound 159, 3-{4-Chloro-5-[(3-ethyl-4-oxo-2-thiazolidinyl-idene)amino]-2-fluorophenyl}-1-methyl-6-(trifluoromethyl)-2,4(1H,3H)-pyrimidinedione]",Preemergence herbicidal rating ORYSAT,[1]; 0.0156 kg/ha,0.0
same,Preemergence herbicidal rating ORYSAT,[1]; 0.0313 kg/ha,0.0
same,Preemergence herbicidal rating ORYSAT,[1]; 0.0625 kg/ha,0.0
same,Preemergence herbicidal rating ORYSAT,[1]; 0.1250 kg/ha,1.0
same,Preemergence herbicidal rating ORYSAT,[1]; 0.2500 kg/ha,2.0
same,Herbicidal rating ZEAMX,[2]; rate 0.0156 kg/ha,5.0
same,Herbicidal rating ZEAMX,[2]; rate 0.0313 kg/ha,6.5
same,Herbicidal rating ZEAMX,[2]; rate 0.0625 kg/ha,7.0
same,Herbicidal rating CASOB,[3]; rate 0.0156 kg/ha,0.0
same,Herbicidal rating CASOB,[3]; rate 0.0313 kg/ha,1.0
same,Herbicidal rating CASOB,[3]; rate 0.0625 kg/ha,7.0
same,Herbicidal rating GALAP,[4]; rate 0.0156 kg/ha,0.0
same,Herbicidal rating GALAP,[4]; rate 0.0313 kg/ha,1.0
same,Herbicidal rating GALAP,[4]; rate 0.0625 kg/ha,4.0
same,Preemergence herbicidal rating ZEAMX,[5]; 0.0156 kg/ha,0.0
same,Preemergence herbicidal rating ZEAMX,[5]; 0.0313 kg/ha,0.0
same,Preemergence herbicidal rating ZEAMX,[5]; 0.0625 kg/ha,1.0
same,Preemergence herbicidal rating ZEAMX,[5]; 0.1250 kg/ha,2.0
same,Preemergence herbicidal rating ZEAMX,[5]; 0.2500 kg/ha,7.0
same,"herbicidal effect rating, CYPIR",[6]; 0.0313 kg/ha,0.0
same,"herbicidal effect rating, CYPIR",[6]; 0.0625 kg/ha,0.0
same,"herbicidal effect rating, CYPIR",[6]; 0.1250 kg/ha,3.0
same,"herbicidal effect rating, CYPIR",[6]; 0.2500 kg/ha,4.0
same,"herbicidal effect rating, ECHORC",[7]; 0.0313 kg/ha,2.0
same,"herbicidal effect rating, ECHORC",[7]; 0.0625 kg/ha,4.0
same,"herbicidal effect rating, ECHORC",[7]; 0.1250 kg/ha,5.0
same,"herbicidal effect rating, ECHORC",[7]; 0.2500 kg/ha,7.0
same,"herbicidal effect rating, CYPSE",[8]; 0.0625 kg/ha,0.0
same,"herbicidal effect rating, CYPSE",[8]; 0.1250 kg/ha,0.0
same,Preemergence herbicidal rating TRZAWR,[9]; 0.0156 kg/ha,0.0
same,Preemergence herbicidal rating TRZAWR,[9]; 0.0313 kg/ha,0.0
same,Preemergence herbicidal rating TRZAWR,[9]; 0.0625 kg/ha,0.0
same,Preemergence herbicidal rating TRZAWR,[9]; 0.1250 kg/ha,1.0
same,Preemergence herbicidal rating TRZAWR,[9]; 0.2500 kg/ha,3.0
same,Preemergence herbicidal rating IPOHE,[10]; 0.0156 kg/ha,0.0
same,Preemergence herbicidal rating IPOHE,[10]; 0.0313 kg/ha,2.0
same,Preemergence herbicidal rating IPOHE,[10]; 0.0625 kg/ha,9.0
same,Preemergence herbicidal rating IPOHE,[10]; 0.1250 kg/ha,7.0
same,Preemergence herbicidal rating IPOHE,[10]; 0.2500 kg/ha,9.0
same,Preemergence herbicidal rating CHEAL,[11]; 0.0156 kg/ha,7.0
same,Preemergence herbicidal rating CHEAL,[11]; 0.0313 kg/ha,9.0
same,Preemergence herbicidal rating CHEAL,[11]; 0.0625 kg/ha,8.0
same,Preemergence herbicidal rating CHEAL,[11]; 0.1250 kg/ha,9.0
same,Preemergence herbicidal rating CHEAL,[11]; 0.2500 kg/ha,9.0
same,Preemergence herbicidal rating AMBEL,[12]; 0.0156 kg/ha,1.0
same,Preemergence herbicidal rating AMBEL,[12]; 0.0313 kg/ha,3.0
same,Preemergence herbicidal rating AMBEL,[12]; 0.0625 kg/ha,4.0
same,Preemergence herbicidal rating AMBEL,[12]; 0.1250 kg/ha,6.0
same,Preemergence herbicidal rating AMBEL,[12]; 0.2500 kg/ha,8.0
Cn1c(C(F)(F)F)cc(=O)n(-c2cc(N=C3SCC(=O)N3Cc3ccccn3)c(Cl)cc2F)c1=O [Compound 131],Preemergence herbicidal rating ORYSAT,[1]; [13],0.0
same,Preemergence herbicidal rating ORYSAT,[1]; [14],0.0
same,Preemergence herbicidal rating ORYSAT,[1]; [15],0.0
same,Preemergence herbicidal rating ORYSAT,[1]; [16],0.0
same,Herbicidal rating ZEAMX,[2]; rate 0.0156 kg/ha,4.5
same,Herbicidal rating ZEAMX,[2]; rate 0.0313 kg/ha,4.5
same,Herbicidal rating ZEAMX,[2]; rate 0.0625 kg/ha,4.5
same,Herbicidal rating CASOB,[3]; rate 0.0156 kg/ha,1.0
same,Herbicidal rating CASOB,[3]; rate 0.0313 kg/ha,1.0
same,Herbicidal rating CASOB,[3]; rate 0.0625 kg/ha,3.0
same,Herbicidal rating GALAP,[4]; rate 0.0156 kg/ha,1.0
same,Herbicidal rating GALAP,[4]; rate 0.0313 kg/ha,3.0
same,Herbicidal rating GALAP,[4]; rate 0.0625 kg/ha,3.0
same,Preemergence herbicidal rating ZEAMX,[5]; [13],0.0
same,Preemergence herbicidal rating ZEAMX,[5]; [14],0.0
same,Preemergence herbicidal rating ZEAMX,[5]; [15],0.0
same,Preemergence herbicidal rating ZEAMX,[5]; [16],0.0
same,"herbicidal effect rating, CYPIR",[6]; 0.1250 kg/ha,0.0
same,"herbicidal effect rating, CYPIR",[6]; 0.2500 kg/ha,4.0
same,"herbicidal effect rating, ECHORC",[7]; 0.1250 kg/ha,2.0
same,"herbicidal effect rating, ECHORC",[7]; 0.2500 kg/ha,4.0
same,"herbicidal effect rating, CYPSE",[8]; 0.1250 kg/ha,0.0
same,"herbicidal effect rating, CYPSE",[8]; 0.2500 kg/ha,0.0
same,Preemergence herbicidal rating TRZAWR,[9]; [13],0.0
same,Preemergence herbicidal rating TRZAWR,[9]; [14],0.0
same,Preemergence herbicidal rating TRZAWR,[9]; [15],0.0
same,Preemergence herbicidal rating TRZAWR,[9]; [16],0.0
same,Preemergence herbicidal rating IPOHE,[10]; [13],0.0
same,Preemergence herbicidal rating IPOHE,[10]; [14],0.0
same,Preemergence herbicidal rating IPOHE,[10]; [15],0.0
same,Preemergence herbicidal rating IPOHE,[10]; [16],0.0
same,Preemergence herbicidal rating CHEAL,[11]; [13],4.0
same,Preemergence herbicidal rating CHEAL,[11]; [14],9.0
same,Preemergence herbicidal rating CHEAL,[11]; [15],9.0
same,Preemergence herbicidal rating CHEAL,[11]; [16],9.0
same,Preemergence herbicidal rating AMBEL,[12]; [13],0.0
same,Preemergence herbicidal rating AMBEL,[12]; [14],0.0
same,Preemergence herbicidal rating AMBEL,[12]; [15],0.0
same,Preemergence herbicidal rating AMBEL,[12]; [16],0.0
